Test results reported in patent US11731933B2, “Device and method for the desalination of water by means of thermal deionisation and liquid-phase ion extraction liquid” (ADIONICS, priority 2015, dated 2023).
Where “and” joins values, the source holds several entries; their conditions need not be identical. Equal entries are not always repeated.

Assay: NaCl extraction from 0.4M NaCl water by ASM + Calix[4]Est in chloroform (Example 11)
Conditions: for NaCl - 20° C. % ext (average) / NaCl - 60° C. % ext (average): average molar extraction; for Mol % Cl- extracted from the water to be treated / Mol % Na+ extracted from the water to be treated: CEM 0.3 Mol/L, ASM 0.3 Mol/L in CHCl3, 0.4 M NaCl; for Δ % ext: difference 20° C. minus 60° C.
Experimental: The extraction composition is obtained by solubilizing an amount of 4-tert-butyl Calix[4]arene tetraethyl Ester (CAS No. 97600-39-0) and ASM in chloroform CHCl3 to obtain a final concentration after solubilization of the CEM and ASM of 0.3 mol/L for Calix[4]Est and of 0.3 mol/L for ASM, respectively. These sealed formulations were then orbitally stirred at 500 rpm for 2 hours after adding an equivalent volume of twice distilled water to allow water saturation of the entire formulation and control of pH output (pH=7). The extraction composition is then put to stand to settle. All the compositions tested are stable and rapidly decanted (a few minutes at the most).
A 0.4 mol/L NaCl aqueous solution was prepared from twice distilled water.
The organic extraction composition is then slightly heated to promote solubilization of the compounds by hot air gun (temperature of about 50 to 60° C.) for a few seconds (10 to 30 seconds) until a clear solution is obtained.
3 mL of the organic extraction composition is then removed from the lower phase of the settled two-phase mixture and transferred to a vial containing 3 mL of salt water at 0.4 M NaCl and then the flask is sealed and orbitally stirred (at 500 revolutions per minute), for 2 hours at room temperature (RT), that is to say between 20 and 25° C. In the case of extraction at 60° C., magnetic stirring (at 500 revolutions per minute), for 2 hours, is carried out with indirect heating in a metal mold on a heating plate. It is verified that droplets of the order of 1-2 mm are present during these agitations in order to be certain to achieve equilibrium in the NaCl distribution between the two liquid phases at the end of stirring. The appearance of the organic and aqueous phases is clear and colorless or slightly cloudy.
After stirring for 2 hours, stirring is stopped and the solution is put to stand to settle within 10 minutes, at least until the two phases have completely separated off, at the temperature of the test. The upper aqueous phase is then removed and then stirred and diluted for analysis of its salinity by a Metrohm Ion Chromatograph incorporating a suitable cation analysis column and a suitable anion analysis column. Similarly, the initial aqueous solution of NaCl at 0.4M is also analyzed by this ion chromatograph to determine its relative molar concentration in sodium and in chlorides. AN extractions and analyzes were duplicated.

SMILES: Nc1cc(C(F)(F)F)cc(C(F)(F)F)c1 [AnilineF*, 3,5-Di(trifluoromethyl)aniline, reference compound]
- NaCl - 20° C. % ext (average): 2.7%
- Mol % Cl- extracted from the water to be treated (60° C.): not detected
- NaCl - 60° C. % ext (average) (60° C.): 0.0%
- Mol % Cl- extracted from the water to be treated (RT): 4.3% and 2.9%
- Mol % Na+ extracted from the water to be treated (RT): 2.0% and 1.8%
- Δ % ext: 2.7%

SMILES: CCCCCCCCCC(=O)Nc1cc(C(F)(F)F)cc(C(F)(F)F)c1 [ASMC9, N-[3,5-bis(trifluoromethyl)phenyl]decanamide]
- NaCl - 20° C. % ext (average): 24.4%
- Mol % Cl- extracted from the water to be treated (60° C.): 6.9% and 8.0%
- Mol % Na+ extracted from the water to be treated (60° C.): 5.4% and 5.7%
- NaCl - 60° C. % ext (average) (60° C.): 6.5%
- Mol % Cl- extracted from the water to be treated (RT): 27.1% and 23.8%
- Mol % Na+ extracted from the water to be treated (RT): 25.2% and 21.7%
- Δ % ext: 17.9%

SMILES: CCCCCCCCCCCC(=O)Nc1cc(C(F)(F)F)cc(C(F)(F)F)c1 [ASMC11, N-[3,5-bis(trifluoromethyl)phenyl]dodecanamide]
- NaCl - 20° C. % ext (average): 23.8%
- Mol % Cl- extracted from the water to be treated (60° C.): 4.9% and 7.7%
- Mol % Na+ extracted from the water to be treated (60° C.): 3.4% and 7.1%
- NaCl - 60° C. % ext (average) (60° C.): 5.8%
- Mol % Cl- extracted from the water to be treated (RT): 24.5% and 25.3%
- Mol % Na+ extracted from the water to be treated (RT): 22.4% and 23.1%
- Δ % ext: 18.0%

SMILES: CCCCCCCCCCCCCC(=O)Nc1cc(C(F)(F)F)cc(C(F)(F)F)c1 [ASMC13, N-[3,5-bis(trifluoromethyl)phenyl]tetradecanamide]
- NaCl - 20° C. % ext (average): 25.0%
- Mol % Cl- extracted from the water to be treated (60° C.): 6.9% and 9.4%
- Mol % Na+ extracted from the water to be treated (60° C.): 5.9% and 9.0%
- NaCl - 60° C. % ext (average) (60° C.): 7.8%
- Mol % Cl- extracted from the water to be treated (RT): 26.2% and 27.4%
- Mol % Na+ extracted from the water to be treated (RT): 22.7% and 23.8%
- Δ % ext: 17.2%
